In one test the target is T1, BTK (Homo sapiens, UniProt Q06187).
T1 construct: endogenous in cells; host or cells: Ramos cells
Briefly: Btk target site occupancy, covalent probe ELISA in Ramos cells. Format: cell-based. Conditions: 1 hour at 37° C., 0.09-200 nM, read-out: Ramos cell EC50 (nM), BTK occupancy. As to the method:
A covalent probe shown below was used in an ELISA assay to determine occupancy of the target BTK by certain compounds according to the invention.
Ramos cells were incubated in serum-free RPMI medium for 1 hour (˜2×10^6 cells/mL in 2 mL). Test compounds were diluted from a 10 mM DMSO stock solution, to achieve a final concentration of 0.09, 0.27, 0.82, 2.47, 7.42, 22.2, 66, and 200 nM. Cells were then incubated for 1 hour at 37° C. Following incubation, cells were spun at 1100 RPM for 5 minutes then washed in 200 μL of chilled PBS. Following the wash, cells were spun at 1100 RPM for 5 minutes. The supernatant was aspirated and then cells were resuspended in lysis buffer containing protease and phosphatase inhibitors. This was followed by centrifugation for 15 minutes at 14000 RPM at 4° C. Supernatant was transferred to a fresh tube. Lysates were stored at −80° C. until assayed.
Samples were thawed and mixed well by vortexing for 5 seconds. 60 μL of each sample was added into the 96-well mixing plate followed by addition of 60 μL of covalent probe solution (2 μM probe in PBS+0.05% Tween-20+1% BSA; 1:2 sample dilution) to each well containing sample. An adhesive cover was then placed on the plate followed by mixing of the plate on a shaker for 1 hour at room temperature. The streptavidin plate was pre-washed 3 times with PBS+0.05% Tween-20. 50 μL of the standards, QCs, and samples were then transferred from the mixing plate to the streptavidin plate. The plate was covered with an adhesive cover and mixed while shaking for 1 hour at room temperature. A 1:1000 dilution of the primary anti-Btk antibody (catalog #611116, Becton Dickinson; Franklin Lakes, N.J.) in PBS+0.05% Tween-20+0.5% BSA was prepared. The streptavidin plate was washed 3 times with PBS+0.05% Tween-20 and 50 μL/well of diluted anti-Btk antibody was then pipetted into the streptavidin plate. The plate was covered and incubated for 1 hour at room temperature. A 1:5000 dilution of secondary antibody (goat anti-mouse-HRP, catalog #62-6520, Zymed-Invitrogen; Carlsbad, Calif.) in PBS+0.05% Tween-20+0.5% BSA was prepared. The streptavidin plate was again washed 3 times with PBS+0.05% Tween-20 and 50 μL/well of diluted secondary antibody was pipetted into the streptavidin plate. The plate was covered and incubated for 1 hour at room temperature. The streptavidin plate was again washed 3 times with PBS+0.05% Tween-20 followed by the addition of 100 μL of TMB solution to each well. The plate was then read on a Synergy^2 plate reader at OD 650 nm until the OD maximum reached 1.0. This was followed by the addition of 100 μL of the Stop Solution. The plate was then read at OD 450 nm. A human recombinant Btk protein standard curve (11.7-3000 pg/μL) was plotted using a 4 parameter curve fit in GenS software (Version 1.05.11; Biotek; Winooski, Vt.;). The sample ODs were read against the standard curve to calculate free protein amounts.
Data were generated as ODs on an ELISA plate reader (Synergy^2, BioTek; Winooski, Vt.). Uninhibited Btk captured by the biotinylated covalent probe was quantitated and normalized to untreated control samples. Results were expressed as % Btk occupancy. EC50 values were generated using a 4 parameter curve fit analysis in GraphPad Prism version 5.0.

Test [1] addresses human recombinant full-length Btk enzyme (Homo sapiens, UniProt Q06187). Briefly: Omnia Continuous Read Kinase Assay, Btk inhibition. Format: biochemical. Details: human recombinant full-length Btk enzyme. The settings on record: 30 minutes pre-incubation at 27° C.; 0.5 nM to 10 μM. From the text: The following Example describes testing certain compounds according to the invention for inhibition of BTK activity. The Omnia® Continuous Read Kinase Assay uses an unnatural amino acid chelation enhanced fluorophore (Sox; 8-hydroxy-5-(N,N-dimethylsulfonamido)-2 methylquinoline) incorporated into a kinase-specific peptide substrate to characterize Btk enzyme kinetics and inhibition. Following Btk-mediated phosphorylation, a sensitive, highly quantifiable increase in real-time fluorescence is noted based upon the ability of chelated Mg2+ to form a bridge between Sox and the phosphate group on a tyrosine residue of the peptide substrate. The Omnia® continuous read assay was performed essentially as described by the vendor (Invitrogen; Carlsbad, Calif.). First, a 10× stock of human recombinant full-length Btk enzyme was prepared in Kinase Reaction Buffer. 5 μL of the 10× enzyme was pre-incubated with 0.5 μL of serially diluted compound prepared in 50% DMSO, in a 384-well microtiter plate for 30 minutes at 27° C. 1.13×ATP and the Tyr5-Sox conjugated peptide substrate were prepared in 1× Kinase Reaction Buffer. Kinase reactions were initiated by the addition of 45 μL of the 1.13×ATP-Sox peptide substrate master mix and monitored every 30 to 90 seconds for 60 minutes at λex360/λem485 in a Synergy plate reader. The IC50 values for each compound assayed were determined from test concentrations of 0.5 nM to 10 μM in half-log intervals performed in duplicate.
At the conclusion of each assay, progress curves from each well were examined for linear reaction kinetics and fit statistics (R2, 95% confidence interval, absolute sum of squares) using GraphPad software (GraphPad Prism version 5.01; San Diego, Calif.). Initial velocity (0 minutes to ˜30+ minutes) from each reaction was determined from the slope of a plot of relative fluorescence units versus time (minutes). Using control normalized % inhibition data, plots were constructed against inhibitor concentration to estimate IC50 from log [inhibitor] versus response using a variable slope model in GraphPad. The compound numbers correspond to the compound numbers in Table 1.

T1 sequence (Q06187 whole entry): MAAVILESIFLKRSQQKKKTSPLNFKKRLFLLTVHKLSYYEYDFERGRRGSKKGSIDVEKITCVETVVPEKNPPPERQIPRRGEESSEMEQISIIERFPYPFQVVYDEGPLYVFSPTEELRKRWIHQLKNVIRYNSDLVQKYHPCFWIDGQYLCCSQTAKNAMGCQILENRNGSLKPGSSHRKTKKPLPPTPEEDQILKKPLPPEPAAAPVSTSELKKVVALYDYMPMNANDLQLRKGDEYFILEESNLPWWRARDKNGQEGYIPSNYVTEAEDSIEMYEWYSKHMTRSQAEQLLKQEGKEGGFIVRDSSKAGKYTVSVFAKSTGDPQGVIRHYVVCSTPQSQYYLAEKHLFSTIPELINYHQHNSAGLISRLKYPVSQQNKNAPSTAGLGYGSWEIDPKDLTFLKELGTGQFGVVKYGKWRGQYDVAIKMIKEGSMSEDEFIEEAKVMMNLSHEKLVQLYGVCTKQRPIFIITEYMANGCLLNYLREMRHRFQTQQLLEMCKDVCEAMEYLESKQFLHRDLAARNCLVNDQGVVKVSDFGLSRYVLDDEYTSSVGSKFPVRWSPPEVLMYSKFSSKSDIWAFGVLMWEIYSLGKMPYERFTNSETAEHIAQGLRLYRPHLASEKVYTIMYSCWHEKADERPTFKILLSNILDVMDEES
Sequence of human recombinant full-length Btk enzyme (Q06187 whole entry): as above

On to `C=CC(=O)Nc1cccc(Nc2nc(Nc3ccc(OCCO)cc3)ncc2F)c1` [Compound I-1, N-(3-((5-fluoro-2-((4-(2-hydroxyethoxy)phenyl)amino)pyrimidin-4-yl)amino)phenyl)acrylamide], for which the concentration for a half-maximal effect (EC50) at BTK is below 50 nM. The IC50 in test [1] is at most 10 nM.
Consider `C=CC(=O)Nc1cccc(Nc2nc(Nc3ccc(O)cc3)ncc2F)c1` [Compound I-3, N-(3-((5-fluoro-2-((4-hydroxyphenyl)amino)pyrimidin-4-yl)amino)phenyl)acrylamide], for which, on BTK, the concentration giving a half-maximal response (EC50) is below 50 nM. Moreover, the IC50 in test [1] was at most 10 nM.

The record behind these values is patent publication US9415049B2, “Heteroaryl compounds and uses thereof” (Celgene Avilomics Research, Inc., priority 2013, dated 2016).
